This passage reports IC50 results from patent US12240827B2, “Serotonin 5-HT2B inhibitory compounds” (Zoetis Services LLC, priority 2019, dated 2025).

The target in one test is T1, canine 5-HT2B receptor (Canis lupus familiaris, UniProt Q50DZ8).
T1 construct: expressed in transfected cells; host or cells: CHO-K1
Kind of test: Canine 5-HT2B (c5-HT2B) in-vitro assay, FLIPR calcium response. It counts as cell-based. Conditions: CHO-K1 cells stably expressing canine 5-HT2B receptor; inhibition of EC80 serotonin calcium response. On the procedure: CHO-K1 cells stably expressing the canine 5-HT2B receptor were seeded at 20,000 cells per well in 20 μl culture media (DMEM with GlutaMAX™ high glucose+5% dialyzed FBS+10 mM HEPES+1×MEM Non-Essential Amino Acids of a 384-well black plate with clear bottom for at least 18 hours at 37° C. and 5% CO2. The cell plate was loaded with 20 μl/well of the FLIPR® Calcium 5 Assay kit prepared in HBSS containing calcium and magnesium supplemented with 20 mM HEPES and 5 mM Probenecid at pH 7.4 and incubated at 37° C. and 5% CO2 for 30 minutes and then an additional 30 minutes at room temperature. The intracellular calcium response was measured using the FLIPR Tetra® instrument measuring the kinetic response of the Calcium 5 dye at an excitation wavelength of 470-495 nm and emission wavelength of 515-575 nm at room temperature. The cells were initially challenged with a 5× concentration of the antagonist (10 μl/well) after an initial baseline recording and the calcium response was recorded for almost 2 minutes. After the completion of the initial antagonist challenge, the cell plate was incubated at room temperature in the FLIPR Tetra® instrument for 10 minutes. Finally, a second kinetic assay was performed after the 10 minute incubation at room temperature to measure the inhibitory response of the EC80 concentration of serotonin (15 μl/well) after an initial baseline recording. The IC50 concentration was determined for each antagonist tested.

The target of the next test is T2, hERG (Homo sapiens, UniProt Q12809).
T2 construct: stably transfected with full length hERG cDNA; expressed in transfected cells; host or cells: HEK293
Nature of the test: hERG in-vitro assay, IonWorks Barracuda population patch clamp. The test is classed as cell-based. Conditions: hERG/HEK293 cells; hERG current block, 5 minutes exposure. On the procedure:
Stock solutions of compounds of the invention and positive control (cisapride; 0.001-3 μM) were prepared in DMSO. Stock solutions were diluted in a HEPES-buffered physiological saline solution. Test and control solutions contained 0.3% DMSO. Human hERG/HEK293 renal epithelial cells stably transfected with full length hERG cDNA were cultured in Dulbecco's Modified Eagle Medium/Nutrient Mixture F-12 (D-MEM/F-12) supplemented with 10% fetal bovine serum, 100 U/mL penicillin G sodium, 100 μg/mL streptomycin sulfate and 500 μg/mL G418. Before testing, cells in culture dishes were rinsed with Hank's Balanced Salt Solution (HBSS) and detached with accutase. Immediately before use in the IonWorks Barracuda™ system, the cells were washed with buffered physiological saline solution (HB-PS) buffer to remove the accutase and re-suspended in 5 mL of HB-PS. The test article effects were evaluated using IonWorks Barracuda™ systems (Molecular Devices Corporation, Union City, CA). HEPES-buffered intracellular solution for whole cell recordings was loaded into the intracellular compartment of the Population Patch Clamp™ (PPC) planar electrode.
Extracellular buffer (HB-PS) was loaded into PPC planar electrode plate wells (11 μL/well). The cell suspension was pipetted into the wells of the PPC planar electrode (9 μL/well). After establishment of a whole-cell configuration (the perforated patch), membrane currents were recorded using patch clamp amplifier in the IonWorks Barracuda™ system. The current recordings were performed one (1) time before test article application to the cells (baseline) and one (1) time after application of the test article. Test article concentrations were applied to naïve cells. Each application consisted of addition of 20 μL of 2× concentrated test article solution to the total 40 μL of final volume of the extracellular well of the PPC plate. Duration of exposure to each compound concentration was five (5) minutes. hERG current was elicited using a pulse pattern with fixed amplitudes (the first conditioning pre-pulse to 10 mV for 60 second, the second conditioning pre-pulse: −90 mV for 20 ms; the test pulse: +40 mV for 100 ms) from a holding potential of 0 mV (‘zero holding’ procedure). hERG current was measured as a difference between the peak current at 1 ms and at the end of test step to +40 mV. Data acquisition and analyses were performed using the IonWorks Barracuda™ system operation software (version 2.0.2). The decrease in current amplitude after test article application was used to calculate the percent block relative to control. Results for each test article concentration (n≥1) were averaged; the mean and standard deviation values were calculated and used to generate dose-response curves.

T1 sequence (Q50DZ8 1-434): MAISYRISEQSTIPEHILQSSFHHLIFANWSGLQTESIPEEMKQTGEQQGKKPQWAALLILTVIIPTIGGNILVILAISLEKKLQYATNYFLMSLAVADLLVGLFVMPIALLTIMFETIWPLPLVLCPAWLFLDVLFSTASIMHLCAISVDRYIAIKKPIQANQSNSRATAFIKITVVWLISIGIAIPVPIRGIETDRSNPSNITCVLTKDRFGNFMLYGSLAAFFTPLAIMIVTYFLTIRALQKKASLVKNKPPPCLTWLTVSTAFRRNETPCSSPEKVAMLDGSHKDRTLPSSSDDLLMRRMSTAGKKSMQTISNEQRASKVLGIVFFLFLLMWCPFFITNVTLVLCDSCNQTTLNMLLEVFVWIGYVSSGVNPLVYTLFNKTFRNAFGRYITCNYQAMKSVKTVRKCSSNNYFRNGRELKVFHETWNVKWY
T2 sequence (Q12809 whole entry): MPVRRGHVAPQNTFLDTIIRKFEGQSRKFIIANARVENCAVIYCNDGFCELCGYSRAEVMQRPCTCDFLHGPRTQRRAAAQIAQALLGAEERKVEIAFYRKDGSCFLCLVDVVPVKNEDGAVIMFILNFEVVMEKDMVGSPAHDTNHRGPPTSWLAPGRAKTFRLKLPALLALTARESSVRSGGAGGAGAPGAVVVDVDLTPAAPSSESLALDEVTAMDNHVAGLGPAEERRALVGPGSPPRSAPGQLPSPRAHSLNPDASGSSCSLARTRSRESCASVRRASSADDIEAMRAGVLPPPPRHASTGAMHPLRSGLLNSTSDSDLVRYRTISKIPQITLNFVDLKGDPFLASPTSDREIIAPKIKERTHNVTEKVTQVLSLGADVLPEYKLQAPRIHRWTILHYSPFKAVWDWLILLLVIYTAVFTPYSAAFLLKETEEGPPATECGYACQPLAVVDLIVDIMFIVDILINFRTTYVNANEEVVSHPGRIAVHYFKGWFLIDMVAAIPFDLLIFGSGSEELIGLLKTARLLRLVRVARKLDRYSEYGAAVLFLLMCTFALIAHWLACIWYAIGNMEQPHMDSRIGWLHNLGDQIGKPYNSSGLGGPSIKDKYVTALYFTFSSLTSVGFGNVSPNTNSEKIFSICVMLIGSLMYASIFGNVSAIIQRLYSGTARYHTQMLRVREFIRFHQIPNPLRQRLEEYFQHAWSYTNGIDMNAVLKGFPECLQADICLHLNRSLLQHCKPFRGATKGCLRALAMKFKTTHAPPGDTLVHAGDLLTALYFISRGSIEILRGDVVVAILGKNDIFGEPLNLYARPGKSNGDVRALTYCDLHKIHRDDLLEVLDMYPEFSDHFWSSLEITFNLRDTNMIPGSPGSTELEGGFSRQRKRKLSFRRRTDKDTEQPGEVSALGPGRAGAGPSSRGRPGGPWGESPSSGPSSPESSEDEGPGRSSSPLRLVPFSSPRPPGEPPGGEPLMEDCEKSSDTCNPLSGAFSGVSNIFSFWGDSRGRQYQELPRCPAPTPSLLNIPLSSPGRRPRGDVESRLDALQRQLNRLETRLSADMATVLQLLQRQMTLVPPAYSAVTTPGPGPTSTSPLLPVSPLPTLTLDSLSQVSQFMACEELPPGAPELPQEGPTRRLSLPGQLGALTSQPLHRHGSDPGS

Consider `Cc1cnc(C2CCN(C(=O)c3ccc(-c4c[nH]c5ccccc45)cc3)CC2)[nH]1` [Example 5, (4-(1H-indol-3-yl)phenyl)(4-(5-methyl-1H-imidazol-2-yl)piperidin-1-yl)methanone], for which the IC50 at canine 5-HT2B receptor is 0.33 nM; against hERG, 6.63 µM.
As to `O=C(c1ccc(-c2cccc(Cl)c2)cc1)N1CCC(c2ncc[nH]2)CC1` [Example 10, (4-(1H-imidazol-2-yl)piperidin-1-yl)(3′-chloro-[1,1′-biphenyl]-4-yl)methanone], the IC50 stood at 0.51 nM at canine 5-HT2B receptor and 2.77 µM on hERG.
Turning to `O=C(c1ccc(-c2ccc(C(F)(F)F)s2)cc1)N1CCC(c2ncc[nH]2)CC1` [Example 22, (4-(1H-imidazol-2-yl)piperidin-1-yl)(4-(5-(trifluoromethyl)thiophen-2-yl)phenyl)methanone], the half-maximal inhibitory concentration (IC50) on canine 5-HT2B receptor was found to be 20.5 nM; on hERG, 2.8 µM.
In the same order, the values of `CS(=O)(=O)c1cccc(-c2ccc(C(=O)N3CCC(c4ncc[nH]4)CC3)cc2)c1` [Example 2, (4-(1H-imidazol-2-yl)piperidin-1-yl)(3′-(methylsulfonyl)-[1,1′-biphenyl]-4-yl)methanone] are 52.3 nM and 72.3 µM.
Consider `O=C(c1ccc(-c2ccc(C(F)F)cc2)cc1)N1CCC(Cc2ncc[nH]2)CC1` [Example 25, (4-((1H-imidazol-2-yl)methyl)piperidin-1-yl)(4′-(difluoromethyl)-[1,1′-biphenyl]-4-yl)methanone], for which the IC50 was found to be 0.46 nM at canine 5-HT2B receptor and 3.4 µM on hERG.
Regarding `N#Cc1ccc(-c2ccc(C(=O)N3CCC(c4ncc[nH]4)CC3)cc2)cc1` [CA-5, 4′-(4-(1H-imidazol-2-yl)piperidine-1-carbonyl)-[1,1′-biphenyl]-4-carbonitrile, reference compound], the results for the IC50 at canine 5-HT2B receptor and against hERG were 453 nM and 0.054 µM, respectively.
As for `O=C(c1ccc(-c2c[nH]c3ccccc23)cc1)N1CCC(c2ncc[nH]2)CC1` [Example 23, (4-(1H-imidazol-2-yl)piperidin-1-yl)(4-(1H-indol-3-yl)phenyl)methanone], the IC50 at canine 5-HT2B receptor amounted to 0.02 nM; against hERG it was 24.8 µM.
As for `O=C(c1ccc2c(-c3cccc4[nH]ccc34)c[nH]c2c1)N1CCC(c2ncc[nH]2)CC1` [Example 28, (4-(1H-imidazol-2-yl)piperidin-1-yl)(1H,1′H-[3,4′-biindol]-6-yl)methanone], the IC50 on canine 5-HT2B receptor was 1.2 nM; on hERG it was more than 30 µM.
Turning to `O=C(c1ccc(-c2ccc(F)cc2)cc1)N1CCC(c2ncc[nH]2)CC1` [CA-4, (4-(1H-imidazol-2-yl)piperidin-1-yl)(4′-fluoro-[1,1′-biphenyl]-4-yl)methanone, reference compound], the values for the IC50 on canine 5-HT2B receptor and against hERG were 0.08 nM and less than 0.03 µM, respectively.
Taken in the same sequence, the figures for `O=C(c1ccc(-c2ccc(C(F)(F)F)cc2)cc1)N1CCC(Nc2ncc[nH]2)CC1` [Example 7, (4-((1H-imidazol-2-yl)amino)piperidin-1-yl)(4′-(trifluoromethyl)-[1,1′-biphenyl]-4-yl)methanone] were 30.2 nM and 2.5 µM.
Consider `O=C(c1ccc(-c2cccc3c2OCO3)cc1)N1CCC(c2ncc[nH]2)CC1` [Example 20, (4-(1H-imidazol-2-yl)piperidin-1-yl)(4-(benzo[d][1,3]dioxol-4-yl)phenyl)methanone], for which the IC50 on canine 5-HT2B receptor was found to be 0.01 nM; on hERG it was 3.39 µM.
In the case of `O=C(c1ccc2c(-c3ccccc3)c[nH]c2c1)N1CCC(c2ncc[nH]2)CC1` [Example 32, (4-(1H-imidazol-2-yl)piperidin-1-yl)(3-phenyl-1H-indol-6-yl)methanone], the IC50 worked out at 7.3 nM at canine 5-HT2B receptor and 15.2 µM at hERG.
In the same order, the values of `O=C(c1ccc(-c2ccc(C(F)F)cc2)cc1)N1CCC(c2ncc[nH]2)CC1` [Example 16, (4-(1H-imidazol-2-yl)piperidin-1-yl)(4′-(difluoromethyl)-[1,1′-biphenyl]-4-yl)methanone] are 0.31 nM and 2.74 µM.
In the same order, the values of `O=C(c1ccc(-c2ccc(C(F)(F)F)cc2)cc1)N1CCC(c2ncc[nH]2)CC1` [Example 3, (4-(1H-imidazol-2-yl)piperidin-1-yl)(4′-(trifluoromethyl)-[1,1′-biphenyl]-4-yl)methanone] are 5.1 nM and 3.48 µM.
In the same order, the values of `O=C(c1ccc2c(-c3c[nH]c4ccccc34)c[nH]c2c1)N1CCC(c2ncc[nH]2)CC1` [Example 29, [4-(1H-imidazol-2-yl)-1-piperidyl]-[3-(1H-indol-3-yl)-1H-indol-6-yl]methanone] are 1.4 nM and 27.1 µM.
Take `O=C(c1ccc(-c2cccc(C(F)(F)F)c2)cc1)N1CCC(c2ncc[nH]2)CC1` [Example 19, (4-(1H-imidazol-2-yl)piperidin-1-yl)(3′-(trifluoromethyl)-[1,1′-biphenyl]-4-yl)methanone]: the IC50 at canine 5-HT2B receptor came out at 0.89 nM; against hERG, 1.47 µM.
In the case of `O=C(c1ccc2c(ccn2-c2ccccc2)c1)N1CCC(c2ncc[nH]2)CC1` [Example 21, (4-(1H-imidazol-2-yl)piperidin-1-yl)(1-phenyl-1H-indol-5-yl)methanone], the IC50 at canine 5-HT2B receptor was found to be 3.1 nM; against hERG it was 4.31 µM.
Turning to `Cc1cnc(C2CCN(C(=O)c3ccc4c(-c5ccccc5)c[nH]c4c3)CC2)[nH]1` [Example 31, (4-(5-methyl-1H-imidazol-2-yl)piperidin-1-yl)(3-phenyl-1H-indol-6-yl)methanone], the IC50 at canine 5-HT2B receptor came to 4.5 nM; against hERG, 19.6 µM.
With `Cc1cnc(C2CCN(C(=O)c3ccc(-c4ccc(C(F)(F)F)cc4)cc3)CC2)[nH]1` [Example 4, (4-(5-methyl-1H-imidazol-2-yl)piperidin-1-yl)(4′-(trifluoromethyl)-[1,1′-biphenyl]-4-yl)methanone], the IC50 at canine 5-HT2B receptor amounted to 21.9 nM; against hERG it was 1.13 µM.
In the case of `O=C(c1ccc(-c2n[nH]c3ccccc23)cc1)N1CCC(c2ncc[nH]2)CC1` [Example 24, (4-(1H-imidazol-2-yl)piperidin-1-yl)(4-(1H-indazol-3-yl)phenyl)methanone], the values for the IC50 at canine 5-HT2B receptor and against hERG were 0.33 nM and 33.6 µM, respectively.
Consider `O=C(c1ccc(-c2cccc3[nH]ccc23)cc1)N1CCC(c2ncc[nH]2)CC1` [Example 17, (4-(1H-imidazol-2-yl)piperidin-1-yl)(4-(1H-indol-4-yl)phenyl)methanone], for which the IC50 on canine 5-HT2B receptor came to 0.04 nM; at hERG, 5.87 µM.
As to `Cc1cnc(C2CCN(C(=O)c3ccc(-c4n[nH]c5ccccc45)cc3)CC2)[nH]1` [Example 6, (4-(1H-indazol-3-yl)phenyl)(4-(5-methyl-1H-imidazol-2-yl)piperidin-1-yl)methanone], the IC50 on canine 5-HT2B receptor came to 0.65 nM; on hERG, 35.5 µM.
For `O=C(c1ccc2c(c1)oc1ccccc12)N1CCC(c2ncc[nH]2)CC1` [Example 15, (4-(1H-imidazol-2-yl)piperidin-1-yl)(dibenzo[b,d]furan-3-yl)methanone], the IC50 at canine 5-HT2B receptor was 0.65 nM; against hERG, 2.01 µM.
Take `O=C(c1ccc(-c2ccccc2)nc1)N1CCC(c2ncc[nH]2)CC1` [Example 11, (4-(1H-imidazol-2-yl)piperidin-1-yl)(6-phenylpyridin-3-yl)methanone]: the IC50 is 4.5 nM on canine 5-HT2B receptor and 3.28 µM against hERG.
